# Source: ChEMBL document CHEMBL5338728, “Advancing Strategies for Proteolysis-Targeting Chimera Design” (J Med Chem, 2023)
# Key:
# [1] = target: E3 ubiquitin-protein ligase XIAP/Tyrosine-protein kinase BTK (Homo sapiens, UniProt P98170+Q06187); experiment: Protac activity at IAP/BTK in human THP-1 cells assessed as protein degradation; format: cell-based
# [2] = target: T1, Protein cereblon/Bromodomain-containing protein 4 (Homo sapiens, UniProt O60885+Q96SW2); experiment: Protac activity at CRBN/BRD4 in human 22Rv1 cells assessed as degradation of BRD4; format: cell-based
# T1 sequence (Q96SW2 whole entry, looked up, other chains not shown): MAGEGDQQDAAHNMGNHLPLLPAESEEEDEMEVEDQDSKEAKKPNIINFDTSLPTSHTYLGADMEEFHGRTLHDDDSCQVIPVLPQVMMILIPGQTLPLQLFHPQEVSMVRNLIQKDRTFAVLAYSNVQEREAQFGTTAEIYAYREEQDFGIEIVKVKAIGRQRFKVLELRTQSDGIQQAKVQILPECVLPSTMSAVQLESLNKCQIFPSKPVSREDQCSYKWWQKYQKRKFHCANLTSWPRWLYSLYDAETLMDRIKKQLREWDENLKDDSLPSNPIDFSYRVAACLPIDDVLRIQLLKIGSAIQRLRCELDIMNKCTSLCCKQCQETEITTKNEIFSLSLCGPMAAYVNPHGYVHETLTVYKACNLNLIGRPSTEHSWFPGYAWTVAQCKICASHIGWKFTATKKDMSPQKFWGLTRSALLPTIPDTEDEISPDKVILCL
# [3] = target: T2, Protein polybromo-1/von Hippel-Lindau disease tumor suppressor (Homo sapiens, UniProt Q86U86+P40337); experiment: Protac activity at VHL/PBRM1 in human NCI-H1568 cells assessed as protein degradation; format: cell-based
# T2 sequence (Q86U86 whole entry): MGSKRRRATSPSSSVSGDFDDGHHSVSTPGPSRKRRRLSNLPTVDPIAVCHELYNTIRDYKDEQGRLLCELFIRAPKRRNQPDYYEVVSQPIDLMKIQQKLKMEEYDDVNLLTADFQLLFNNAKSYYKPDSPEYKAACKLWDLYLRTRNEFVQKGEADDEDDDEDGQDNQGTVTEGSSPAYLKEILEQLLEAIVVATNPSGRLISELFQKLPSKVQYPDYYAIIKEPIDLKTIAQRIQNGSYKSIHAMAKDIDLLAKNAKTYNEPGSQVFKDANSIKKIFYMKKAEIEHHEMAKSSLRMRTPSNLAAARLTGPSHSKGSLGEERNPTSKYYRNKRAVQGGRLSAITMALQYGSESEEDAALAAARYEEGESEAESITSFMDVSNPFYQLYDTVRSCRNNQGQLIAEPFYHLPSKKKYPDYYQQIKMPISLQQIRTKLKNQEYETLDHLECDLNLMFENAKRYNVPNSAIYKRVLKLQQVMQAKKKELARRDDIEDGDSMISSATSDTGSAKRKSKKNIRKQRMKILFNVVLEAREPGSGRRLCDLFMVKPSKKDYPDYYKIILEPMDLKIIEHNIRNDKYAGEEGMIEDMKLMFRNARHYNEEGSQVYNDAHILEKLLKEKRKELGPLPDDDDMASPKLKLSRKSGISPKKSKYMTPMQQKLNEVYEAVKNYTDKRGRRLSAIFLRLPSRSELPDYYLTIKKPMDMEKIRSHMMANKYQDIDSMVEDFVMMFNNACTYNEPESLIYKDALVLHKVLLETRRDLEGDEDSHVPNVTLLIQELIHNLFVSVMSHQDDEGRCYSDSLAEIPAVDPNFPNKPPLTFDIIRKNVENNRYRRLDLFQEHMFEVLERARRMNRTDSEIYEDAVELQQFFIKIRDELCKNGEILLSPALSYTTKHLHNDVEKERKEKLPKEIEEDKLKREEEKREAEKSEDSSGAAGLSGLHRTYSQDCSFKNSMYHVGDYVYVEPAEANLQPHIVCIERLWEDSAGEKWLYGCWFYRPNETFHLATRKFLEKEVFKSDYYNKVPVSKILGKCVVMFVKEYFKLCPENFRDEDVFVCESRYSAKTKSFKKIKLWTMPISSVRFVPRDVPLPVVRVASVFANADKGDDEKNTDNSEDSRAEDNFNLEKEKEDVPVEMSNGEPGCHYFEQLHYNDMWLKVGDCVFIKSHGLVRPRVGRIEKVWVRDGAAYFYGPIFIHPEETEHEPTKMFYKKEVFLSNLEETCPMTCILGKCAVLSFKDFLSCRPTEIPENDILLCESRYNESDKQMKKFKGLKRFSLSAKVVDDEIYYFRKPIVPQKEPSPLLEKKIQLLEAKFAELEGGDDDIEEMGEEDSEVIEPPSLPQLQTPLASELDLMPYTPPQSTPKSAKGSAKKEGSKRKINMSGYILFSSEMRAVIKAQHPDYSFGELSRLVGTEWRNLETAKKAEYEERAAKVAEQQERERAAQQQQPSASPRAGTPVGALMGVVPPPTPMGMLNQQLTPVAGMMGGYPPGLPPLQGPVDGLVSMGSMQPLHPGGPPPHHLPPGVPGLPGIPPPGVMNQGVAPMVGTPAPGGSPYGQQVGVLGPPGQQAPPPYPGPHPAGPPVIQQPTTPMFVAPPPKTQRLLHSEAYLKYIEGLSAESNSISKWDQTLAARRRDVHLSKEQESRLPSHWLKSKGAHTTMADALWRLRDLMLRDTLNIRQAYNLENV
# T2 sequence (P40337 whole entry): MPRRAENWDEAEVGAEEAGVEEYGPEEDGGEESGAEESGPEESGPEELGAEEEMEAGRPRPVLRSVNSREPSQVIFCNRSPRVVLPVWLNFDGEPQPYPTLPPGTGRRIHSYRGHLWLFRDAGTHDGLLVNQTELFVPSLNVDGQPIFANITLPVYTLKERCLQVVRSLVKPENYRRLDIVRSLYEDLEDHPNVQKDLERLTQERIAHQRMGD
# [4] = target: T3, von Hippel-Lindau disease tumor suppressor/SWI/SNF-related matrix-associated actin-dependent regulator of chromatin subfamily A member 2 (Homo sapiens, UniProt P51531+P40337); experiment: Protac activity at VHL/SMARCA2 in human NCI-H1568 cells assessed as protein degradation; format: cell-based
# Target sequence in this assay (P51531 whole entry): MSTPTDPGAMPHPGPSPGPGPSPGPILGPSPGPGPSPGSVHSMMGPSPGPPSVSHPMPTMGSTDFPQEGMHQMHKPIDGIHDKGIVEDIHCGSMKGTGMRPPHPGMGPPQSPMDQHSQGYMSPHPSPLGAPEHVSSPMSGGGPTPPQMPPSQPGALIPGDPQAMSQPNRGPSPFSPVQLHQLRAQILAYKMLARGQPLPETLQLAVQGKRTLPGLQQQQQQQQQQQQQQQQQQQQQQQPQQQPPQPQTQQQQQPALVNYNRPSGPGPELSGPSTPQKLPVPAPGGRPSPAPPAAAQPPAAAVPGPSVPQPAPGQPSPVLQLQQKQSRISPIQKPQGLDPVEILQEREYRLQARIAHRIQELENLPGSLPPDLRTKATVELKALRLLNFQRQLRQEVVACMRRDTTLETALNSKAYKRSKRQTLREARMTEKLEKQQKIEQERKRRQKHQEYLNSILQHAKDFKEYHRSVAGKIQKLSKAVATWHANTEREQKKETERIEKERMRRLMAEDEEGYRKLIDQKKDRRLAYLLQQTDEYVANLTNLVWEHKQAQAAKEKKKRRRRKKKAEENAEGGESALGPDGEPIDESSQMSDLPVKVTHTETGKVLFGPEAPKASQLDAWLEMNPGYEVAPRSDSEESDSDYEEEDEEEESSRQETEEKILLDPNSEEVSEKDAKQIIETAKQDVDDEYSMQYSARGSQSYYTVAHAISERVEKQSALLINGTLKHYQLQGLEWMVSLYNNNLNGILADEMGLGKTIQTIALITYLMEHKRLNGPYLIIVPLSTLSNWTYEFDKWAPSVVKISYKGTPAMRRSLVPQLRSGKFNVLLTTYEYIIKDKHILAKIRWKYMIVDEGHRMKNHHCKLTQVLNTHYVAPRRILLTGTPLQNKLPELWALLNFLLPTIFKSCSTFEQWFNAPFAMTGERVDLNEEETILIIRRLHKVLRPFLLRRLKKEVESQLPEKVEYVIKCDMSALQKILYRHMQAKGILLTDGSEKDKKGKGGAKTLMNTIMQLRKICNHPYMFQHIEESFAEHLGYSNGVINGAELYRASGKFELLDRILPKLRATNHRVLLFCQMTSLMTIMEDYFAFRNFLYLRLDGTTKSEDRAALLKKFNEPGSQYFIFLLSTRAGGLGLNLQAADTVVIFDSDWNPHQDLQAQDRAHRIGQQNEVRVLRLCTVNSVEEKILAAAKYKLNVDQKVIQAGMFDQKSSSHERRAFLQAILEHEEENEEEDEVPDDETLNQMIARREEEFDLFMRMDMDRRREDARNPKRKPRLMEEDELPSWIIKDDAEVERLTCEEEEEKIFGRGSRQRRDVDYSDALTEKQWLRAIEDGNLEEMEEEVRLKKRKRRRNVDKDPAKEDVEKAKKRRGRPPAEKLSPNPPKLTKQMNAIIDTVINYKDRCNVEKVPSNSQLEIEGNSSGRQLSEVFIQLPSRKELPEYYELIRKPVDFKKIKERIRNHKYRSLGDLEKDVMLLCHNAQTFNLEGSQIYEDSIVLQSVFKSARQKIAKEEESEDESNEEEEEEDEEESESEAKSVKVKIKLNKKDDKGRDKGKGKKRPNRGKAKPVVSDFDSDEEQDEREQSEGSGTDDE
# Target sequence in this assay (P40337 whole entry): as the sequence (P40337 whole entry) above
# [5] = target: T2, Protein polybromo-1/von Hippel-Lindau disease tumor suppressor; experiment: Protac activity at VHL/PBRM1 in human MV4-11 cells assessed as protein degradation; format: cell-based
# [6] = target: T4, Protein cereblon/Myc proto-oncogene protein (Homo sapiens, UniProt P01106+Q96SW2); experiment: PROTAC activity at MYC/CRBN in human HCT-116 cells assessed as degradation; format: cell-based
# [7] = target: T4, Protein cereblon/Myc proto-oncogene protein; experiment: PROTAC activity at MYC/CRBN in human PSN1 cells assessed as degradation; format: cell-based
# [8] = Oral bioavailability in mouse at 30 mg/kg; format: ADME, organism-based; settings: in vivo
# [9] = target: T3, von Hippel-Lindau disease tumor suppressor/SWI/SNF-related matrix-associated actin-dependent regulator of chromatin subfamily A member 2; experiment: Protac activity at VHL/SMARCA2 in human RKO cells assessed as protein degradation incubated for 18 hrs by capillary electrophoresis analysis; format: cell-based
# Target sequence in this assay (P51531 whole entry): as the sequence (P51531 whole entry) above
# Target sequence in this assay (P40337 whole entry): as the sequence (P40337 whole entry) above
# [10] = test system: von Hippel-Lindau disease tumor suppressor/Leucine-rich repeat serine/threonine-protein kinase 2 (Mus musculus), Q5S006+P40338 [G2019S]; experiment: Protac activity at VHL/LRRK2 G2019S mutant in mouse MEF cells assessed as protein degradation at 33 nM after 4 hrs by Western blot analysis relative to control; format: cell-based
# [11] = target: T1, Protein cereblon/Bromodomain-containing protein 4; experiment: Protac activity at CRBN/BRD4 in HEK293 cells assessed as protein degradation by measuring maximal efficacy relative to control; format: cell-based
# [12] = target: T5, Protein fem-1 homolog B/Bromodomain-containing protein 4 (Homo sapiens, UniProt O60885+Q9UK73); experiment: Protac activity at FEM1B/BRD4 in HEK293T cells assessed as degradation of BRD4; format: cell-based
# T5 sequence (Q9UK73 whole entry, looked up, other chains not shown): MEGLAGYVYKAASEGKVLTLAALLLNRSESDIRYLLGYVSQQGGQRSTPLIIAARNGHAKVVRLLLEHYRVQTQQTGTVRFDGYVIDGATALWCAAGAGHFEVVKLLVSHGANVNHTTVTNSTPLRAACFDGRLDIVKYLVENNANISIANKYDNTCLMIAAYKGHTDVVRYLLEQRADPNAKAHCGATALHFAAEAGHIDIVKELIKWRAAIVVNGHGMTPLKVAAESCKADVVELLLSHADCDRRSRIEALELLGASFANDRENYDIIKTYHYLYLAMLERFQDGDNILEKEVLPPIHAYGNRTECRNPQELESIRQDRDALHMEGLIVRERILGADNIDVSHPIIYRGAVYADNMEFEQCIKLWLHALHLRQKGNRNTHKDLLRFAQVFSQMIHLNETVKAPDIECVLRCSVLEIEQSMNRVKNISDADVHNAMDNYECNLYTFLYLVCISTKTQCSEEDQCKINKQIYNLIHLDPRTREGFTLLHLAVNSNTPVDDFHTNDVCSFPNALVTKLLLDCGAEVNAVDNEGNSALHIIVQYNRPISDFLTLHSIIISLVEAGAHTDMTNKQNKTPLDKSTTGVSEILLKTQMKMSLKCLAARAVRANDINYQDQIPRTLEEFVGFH
# [13] = target: T5, Protein fem-1 homolog B/Bromodomain-containing protein 4; experiment: Protac activity at FEM1B/BRD4 in HEK293T cells assessed as induction of protein degradation by measuring maximal efficacy relative to control; format: cell-based
# [14] = target: T3, von Hippel-Lindau disease tumor suppressor/SWI/SNF-related matrix-associated actin-dependent regulator of chromatin subfamily A member 2; experiment: Protac activity at VHL/SMARCA2 in human RKO cells assessed as induction of protein degradation by measuring maximal efficacy incubated for 18 hrs by capillary electrophoresis analysis relative to control; format: cell-based
# Target sequence in this assay (P40337 whole entry, looked up): as the sequence (P40337 whole entry) above
# Target sequence in this assay (P51531 whole entry, looked up): as the sequence (P51531 whole entry) above
# [15] = target: Protein cereblon/Tyrosine-protein kinase BTK (Homo sapiens) (UniProt Q06187+Q96SW2); experiment: Protac activity at CRBN/BTK in human NAMALVA cells assessed as protein degradation by measuring maximal efficacy after 24 hrs by Western blot analysis relative to control; format: cell-based
# [16] = target: von Hippel-Lindau disease tumor suppressor/Bcl-2-like protein 1 (Homo sapiens, UniProt Q07817+P40337); experiment: Protac activity at VHL/BCL-xL in human HEK293T cells assessed as protein degradation; format: cell-based
# [17] = target: von Hippel-Lindau disease tumor suppressor/Apoptosis regulator Bcl-2 (Homo sapiens, UniProt P10415+P40337); experiment: Protac activity at VHL/BCL-2 in human HEK293T cells assessed as protein degradation; format: cell-based
# von Hippel-Lindau disease tumor suppressor/Apoptosis regulator Bcl-2, sequence (P10415 whole entry): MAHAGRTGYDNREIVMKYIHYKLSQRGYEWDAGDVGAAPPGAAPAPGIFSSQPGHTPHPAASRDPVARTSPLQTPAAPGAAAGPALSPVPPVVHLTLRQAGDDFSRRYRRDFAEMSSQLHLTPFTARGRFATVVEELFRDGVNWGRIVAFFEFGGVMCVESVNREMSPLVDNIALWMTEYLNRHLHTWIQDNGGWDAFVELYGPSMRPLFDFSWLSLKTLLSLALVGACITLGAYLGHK
# von Hippel-Lindau disease tumor suppressor/Apoptosis regulator Bcl-2, sequence (P40337 whole entry): as the sequence (P40337 whole entry) above
# [18] = target: von Hippel-Lindau disease tumor suppressor/ALK tyrosine kinase receptor (Homo sapiens, UniProt Q9UM73+P40337); experiment: Protac activity at VHL/ALK in human SR cells assessed as protein degradation
# [19] = target: BRD4/E3 ubiquitin-protein ligase Mdm2 (Homo sapiens) (UniProt Q00987+O60885); experiment: Protac activity at MDM2/BRD4 in human HCT-116 cells assessed as induction of protein degradation by measuring maximal efficacy relative to control; format: cell-based
# [20] = Oral bioavailability in C57BL/6 mouse at 30 mg/kg; format: ADME, organism-based; settings: in vivo
# [21] = Cmax in C57BL/6 mouse at 30 mg/kg, ip; format: ADME, organism-based; parameters: dose 30 mg/kg, route ip; settings: in vivo
# [22] = Tmax in C57BL/6 mouse at 30 mg/kg, po; format: ADME, organism-based; settings: in vivo
# [23] = target: T6, von Hippel-Lindau disease tumor suppressor/Leucine-rich repeat serine/threonine-protein kinase 2 (Mus musculus) (UniProt Q5S006+P40338); experiment: Protac activity at VHL/wild type LRRK2 in mouse MEF cells assessed as protein degradation at 33 nM after 4 hrs by Western blot analysis relative to control; format: cell-based
# [24] = test system: von Hippel-Lindau disease tumor suppressor/Leucine-rich repeat serine/threonine-protein kinase 2 (Mus musculus), Q5S006+P40338 [G2019S]; experiment: Protac activity at VHL/LRRK2 G2019S mutant in mouse MEF cells assessed as induction of protein degradation by measuring maximal efficacy after 4 hrs by Western blot analysis relative to control; format: cell-based
# [25] = target: von Hippel-Lindau disease tumor suppressor/Leucine-rich repeat serine/threonine-protein kinase 2 (Mus musculus, UniProt Q5S006+P40338); experiment: Protac activity at VHL/wild type LRRK2 in mouse MEF cells assessed as protein degradation after 4 hrs by Western blot analysis; format: cell-based
# [26] = test system: von Hippel-Lindau disease tumor suppressor/Leucine-rich repeat serine/threonine-protein kinase 2 (Mus musculus), Q5S006+P40338 [G2019S]; experiment: Protac activity at VHL/LRRK2 G2019S mutant in mouse MEF cells assessed as protein degradation at 1 uM after 4 hrs by Western blot analysis relative to control; format: cell-based
# [27] = Cmax in C57BL/6 mouse at 30 mg/kg, po; format: ADME, organism-based; parameters: dose 30 mg/kg, route po; settings: in vivo
# [28] = target: von Hippel-Lindau disease tumor suppressor/Leucine-rich repeat serine/threonine-protein kinase 2 (Mus musculus, UniProt Q5S006+P40338, G2019S); experiment: Protac activity at VHL/LRRK2 G2019S mutant in mouse MEF cells assessed as protein degradation after 4 hrs by Western blot analysis; format: cell-based
# [29] = Tmax in C57BL/6 mouse at 30 mg/kg, ip; format: ADME, organism-based; settings: in vivo
# [30] = target: T6, von Hippel-Lindau disease tumor suppressor/Leucine-rich repeat serine/threonine-protein kinase 2 (Mus musculus); experiment: Protac activity at VHL/wild type LRRK2 in mouse MEF cells assessed as induction of protein degradation by measuring maximal efficacy after 4 hrs by Western blot analysis relative to control; format: cell-based
# [31] = target: T7, von Hippel-Lindau disease tumor suppressor/Fibroblast growth factor receptor 1 (Homo sapiens, UniProt P11362+P40337); experiment: Protac activity at VHL/FGFR1 in human CC-LP-1 cells assessed as protein degradation; format: cell-based
# [32] = target: T7, von Hippel-Lindau disease tumor suppressor/Fibroblast growth factor receptor 1; experiment: Protac activity at VHL/FGFR1 in human CC-LP-1 cells assessed as protein degradation by measuring maximal efficacy relative to control; format: cell-based
# [33] = target: T1, Protein cereblon/Bromodomain-containing protein 4; experiment: Protac activity at CRBN/BRD4 in HEK293T cells assessed as protein degradation by immunoblot analysis; format: cell-based
compound,measurement,setting,value
CN[C@@H](C)C(=O)N[C@H](C(=O)N1CCC[C@H]1c1nc(C(=O)c2ccc(F)cc2)cs1)C1CCN(CCCC(=O)N2CCC[C@@H](n3nc(-c4ccc(Oc5ccc(F)cc5F)cc4)c(C(N)=O)c3N)C2)CC1,DC50,[1],4700 nM
Cc1sc2c(c1C)C(c1ccc(Cl)cc1)=N[C@H](CC(=O)Nc1cccc(OCCOCCOCCNc3cccc4nnn(C5CCC(=O)NC5=O)c(=O)c34)c1)c1nnc(C)n1-2 (some centres not stated),DC50,[2],0.32 nM
Cc1ncsc1-c1ccc(CNC(=O)[C@@H]2C[C@@H](O)CN2C(=O)[C@@H](NC(=O)C2(F)CC2)C(C)(C)C)c(OCCOc2ccc(CN3CCN(c4cc(-c5ccccc5O)nnc4N)CC3)cc2)c1,DC50,[3],15.6 nM
same,DC50,[4],3.3 nM
same,DC50,[5],32 nM
CC(C)c1ccc(/C=C2\SC(=O)N(CCCCCCCCNC(=O)c3ccc4c(c3)C(=O)N(C3CCC(=O)NC3=O)C4=O)C2=O)cc1 (configuration not stated),DC50,[6],5000 nM
same,DC50,[7],~10000 nM
Cc1ncsc1-c1ccc([C@H](CCCCCN2CCC(c3ccc4c(c3)n(C3CCCC3)c3nc(=O)c5c(Br)cccc5n43)CC2)NC(=O)C2C[C@@H](O)CN2C(=O)[C@@H](NC(=O)C2(F)CC2)C(C)(C)C)cc1 (some centres not stated),bioavailability,[8],3%
same,DC50,[9],32 nM
CNc1nc(Nc2ccc(C(=O)N3CCN(CCCOc4cc(-c5scnc5C)ccc4CNC(=O)[C@H]4C[C@@H](O)CN4C(=O)[C@@H](NC(=O)C4(F)CC4)C(C)(C)C)CC3)cc2OC)ncc1Cl,Activity,[10],60%
Cc1sc2c(c1C)C(c1ccc(Cl)cc1)=N[C@@H](CC(=O)NCCCCNC(=O)COc1cccc3c1C(=O)N(C1CCC(=O)NC1=O)C3=O)c1nnc(C)n1-2 (some centres not stated),Emax,[11],93%
Cc1sc2c(c1C)C(c1ccc(Cl)cc1)=N[C@@H](CC(=O)NCCCCNC(=O)CN1CCOc3cc(N(CCC#N)C(=O)CCl)ccc31)c1nnc(C)n1-2,DC50,[12],250 nM
same,Emax,[13],94%
Cc1ncsc1-c1ccc(OCCCN2CCC(c3ccc4c(c3)n(C3CCCC3)c3nc(=O)c5c(Br)cccc5n43)CC2)c(CNC(=O)[C@@H]2C[C@@H](O)CN2C(=O)[C@@H](NC(=O)C2(F)CC2)C(C)(C)C)c1,DC50,[9],78 nM
same,Emax,[14],46%
Nc1ncnc2c1c(-c1ccc(Oc3ccccc3)cc1)nn2C1CCN(CCOCCOCC(=O)Nc2ccc3c(c2)C(=O)N(C2CCC(=O)NC2=O)C3=O)CC1 (configuration not stated),Emax,[15],99%
Cc1ncsc1-c1ccc([C@H](C)NC(=O)[C@@H]2C[C@@H](O)CN2C(=O)[C@@H](NC(=O)CCCCCCC(=O)N2CCN(C[C@]3(C)CCC(c4ccc(Cl)cc4)=C(CN4CCN(c5ccc(C(=O)NS(=O)(=O)c6ccc(N[C@H](CCN7CCOCC7)CSc7ccccc7)c(S(=O)(=O)C(F)(F)F)c6)cc5)CC4)C3)CC2)C(C)(C)C)cc1,DC50,[16],6 nM
same,DC50,[17],48 nM
Cc1ncsc1-c1ccc([C@H](CC[C@H](C)CCN2CCC(c3ccc4c(c3)n(C3CCCC3)c3nc(=O)c5c(Br)cccc5n43)CC2)NC(=O)C2C[C@@H](O)CN2C(=O)[C@@H](NC(=O)C2(F)CC2)C(C)(C)C)cc1 (some centres not stated),bioavailability,[8],22%
same,DC50,[9],1 nM
COc1cc(N2CCC(N3CCN(C(=O)CCCCCCCCC(=O)N[C@H](C(=O)N4C[C@H](O)C[C@H]4C(=O)NCc4ccc(-c5scnc5C)cc4)C(C)(C)C)CC3)CC2)ccc1Nc1ncc(Cl)c(Nc2ccccc2P(C)(C)=O)n1,DC50,[18],7.5 nM
COc1cc(C(=O)NCCOCCOCCOCCNC(=O)C[C@@H]2N=C(c3ccc(Cl)cc3)c3c(sc(C)c3C)-n3c(C)nnc32)ccc1NC(=O)[C@@H]1N[C@@H](CC(C)(C)C)[C@](C#N)(c2ccc(Cl)cc2F)[C@H]1c1cccc(Cl)c1F,Emax,[19],98%
CNc1nc(Nc2ccc(C(=O)N3CCN(C[C@H]4CC[C@H](CSC(C)(C)[C@H](NC(=O)C5(F)CC5)C(=O)N5C[C@H](O)C[C@@H]5C(=O)NCc5ccc(-c6scnc6C)cc5)CC4)CC3)cc2OC)ncc1Cl,bioavailability,[20],15%
same,Cmax,[21],7700 ng/mL
same,Tmax,[22],2 h
same,Activity,[23],20%
same,Emax,[24],90%
same,Activity,[10],50%
same,DC50,[25],32 nM
same,Activity,[26],30%
same,Cmax,[27],3620 ng/mL
same,DC50,[28],14 nM
same,Tmax,[29],0.25 h
same,Emax,[30],82%
COc1cc(OC)c(Cl)c(NC(=O)N(C)c2cc(Nc3ccc(N4CCN(CC(=O)N[C@H](C(=O)N5C[C@H](O)C[C@H]5C(=O)N[C@@H](C)c5ccc(-c6scnc6C)cc5)C(C)(C)C)CC4)cc3)ncn2)c1Cl,DC50,[31],4.35 nM
same,Emax,[32],85%
COC(=O)C[C@@H]1N=C(c2ccc(Cl)cc2)c2c(sc(C(=O)NCCCCCNc3ccc4c(c3)C(=O)N(C3CCC(=O)NC3=O)C4=O)c2C)-n2c(C)nnc21 (some centres not stated),DC50,[33],5 nM
